Assay results as given in US20210032674A1, “METHOD FOR DETERMINING MICROORGANISM CONCENTRATION” (priority 2018, published 2021).
Values after ≈ are worked out from the molar mass of the structure shown.

System: clinical isolate of Klebsiella pneumoniae
Assay: Antibiotic susceptibility test (AST), MIC calling by automated microscopy imaging of microbial biomass in a 336-well AST-disc
Assay type: cell-based
Details: K. pneumoniae recovered from spiked positive blood culture flask, adjusted to 5x10^5 CFU/ml in CAMBH, 35° C., up to 5.5 hours total AST time; for MIC: Klebsiella pneumoniae, 5.5 h
Protocol: Clinical isolates grown on agar plate were individually suspended in PBS and adjusted to 0.5 McFarland. A 1:100 dilution of this was added together with 9 ml of blood from a healthy donor to a blood culture flask (BD Bactec Plus Aerob) and incubated in a blood culture cabinet overnight. In the morning, after the BCF had turned positive a 500 μl aliquot of the positive BCF were used for the subsequent analysis.
The value of the concentration determination was compared to a pre-determined standard curve and the concentration of microorganisms in the recovered suspension was automatically adjusted to the desired concentration (5×10^5 CFU/ml). For this experiment an aliquot of the concentration adjusted bacteria were plated on an agar plate to determine viable cell count to provide a control measure for the process.
The concentration adjusted sample in CAMBH was added using an automated pipette via central access ports to a 336-well AST-disc pre-filled with dried antibiotics in various concentrations.
Each well contain 20 μl of sample and is incubated at 35° C. An initial reading was taken after 30 minutes (reading 0). Subsequent readings (readings 1-6) were taken every hour up to 5.5 hours total AST time by imaging by automated microscopy.
MIC antibiotic concentrations (measured in mg/I) were determined for a range of antibiotics. Each antibiotic were present in triplicates in the AST-consumable in this experiment.

Molecule	MIC (replicate #1)	MIC (replicate #2)	MIC (replicate #3)	MIC values (replicate #1)	MIC values (replicate #2)	MIC values (replicate #3)
C[C@@H](O)[C@H]1C(=O)N2C(C(=O)O)=C(S[C@@H]3CN[C@H](C(=O)N(C)C)C3)[C@H](C)[C@H]12 [Meropenem]	≤ 0.0625 µg/mL	≤ 0.0625 µg/mL	≤ 0.0625 µg/mL	–	–	–
Gentamicin	–	–	–	0.5 mg/I	0.5 mg/I	0.5 mg/I
C[C@@H](O)[C@H]1C(=O)N2C(C(=O)O)=C(S[C@@H]3CN[C@H](C(=O)Nc4cccc(C(=O)O)c4)C3)[C@H](C)[C@H]12 [Ertapenem]	≤ 0.0156 µg/mL	0.0312 µg/mL (≈ 0.0657 µM)	≤ 0.0156 µg/mL	–	–	–
CO/N=C(\C(=O)N[C@@H]1C(=O)N2C(C(=O)O)=C(COC(C)=O)CS[C@H]12)c1csc(N)n1 [Cefotaxime]	> 8 µg/mL	> 8 µg/mL	> 8 µg/mL	–	–	–
C[C@@H](O)[C@H]1C(=O)N2C(C(=O)O)=C(SCCN=CN)C[C@H]12 [Imipinem]	–	–	–	<=0.5 mg/I	<=0.5 mg/I	<=0.5 mg/I
Colistin	–	–	–	0.5 mg/I	1 mg/I	1 mg/I
CO/N=C(\C(=O)N[C@@H]1C(=O)N2C(C(=O)O)=C(CSc3nc(=O)c(=O)[nH]n3C)CS[C@H]12)c1csc(N)n1 [Ceftriaxone]	> 8 µg/mL	> 8 µg/mL	> 8 µg/mL	–	–	–
NC[C@H]1O[C@H](O[C@H]2[C@H](O)[C@@H](O[C@H]3O[C@H](CO)[C@@H](O)[C@H](N)[C@H]3O)[C@H](N)C[C@@H]2N)[C@H](N)C[C@@H]1O [Tobramycin]	2 µg/mL (≈ 4.28 µM)	2 µg/mL (≈ 4.28 µM)	2 µg/mL (≈ 4.28 µM)	–	–	–
Ceftolozane-tazobactam	–	–	–	0.25 mg/I	0.25 mg/I	0.25 mg/I
CC(C)(O/N=C(\C(=O)N[C@@H]1C(=O)N2C(C(=O)[O-])=C(C[n+]3ccccc3)CS[C@H]12)c1csc(N)n1)C(=O)O [Ceftazidime]	≤ 0.125 µg/mL	≤ 0.125 µg/mL	≤ 0.125 µg/mL	–	–	–
Amoxicillin/clavulanic acid	–	–	–	8 mg/I	16 mg/I	16 mg/I
CO[C@@]1(NC(=O)Cc2cccs2)C(=O)N2C(C(=O)O)=C(COC(N)=O)CS[C@@H]21 [Cefoxitine]	2 µg/mL (≈ 4.68 µM)	4 µg/mL (≈ 9.36 µM)	2 µg/mL (≈ 4.68 µM)	–	–	–
ceftazidime-avibactam	–	–	–	16 mg/I	32 mg/I	32 mg/I
Piperacillin/Tazobactam	–	–	–	4 mg/I	4 mg/I	4 mg/I
NCC[C@H](O)C(=O)N[C@@H]1C[C@H](N)[C@@H](O[C@H]2O[C@H](CN)[C@@H](O)[C@H](O)[C@H]2O)[C@H](O)[C@H]1O[C@H]1O[C@H](CO)[C@@H](O)[C@H](N)[C@H]1O [Amikacin]	1 µg/mL (≈ 1.71 µM)	2 µg/mL (≈ 3.42 µM)	1 µg/mL (≈ 1.71 µM)	–	–	–
CN(C)c1cc(NC(=O)CNC(C)(C)C)c(O)c2c1C[C@H]1C[C@H]3[C@H](N(C)C)C(O)=C(C(N)=O)C(=O)[C@@]3(O)C(O)=C1C2=O [Tigecyclin]	–	–	–	0.5 mg/I	0.5 mg/I	0.5 mg/I
C[C@H]1COc2c(N3CCN(C)CC3)c(F)cc3c(=O)c(C(=O)O)cn1c23 [Levofloxacin]	0.5 µg/mL (≈ 1.38 µM)	0.5 µg/mL (≈ 1.38 µM)	0.5 µg/mL (≈ 1.38 µM)	–	–	–
Trimethoprim/Sulfamethoxasole	–	–	–	>16 mg/I	>16 mg/I	>16 mg/I
